≈ marks a conversion by molar mass, not a printed value. Counter-ions that a name gives are not always drawn. Values belong to the molecule of their own block, whether it stands above or below them.
How the values were obtained:
physchem = conditions: organic solvent or mixture
[1] = 20° C.; cited from earlier work

Molecule: O=C1CC[C@@]2(O)[C@H]3Cc4ccc(O)c5c4[C@@]2(CCN3CC2CC2)[C@H]1O5 [Naltrexone hydrochloride]
solubility (physchem; benzyl alcohol, 20 °C): 800 mg/mL

Molecule: glycofurol
solubility in water [1]: soluble

Molecule: Cc1nc2n(c(=O)c1CCN1CCC(c3noc4cc(F)ccc34)CC1)CCCC2O (stereo not shown) [Paliperidone]
solubility (physchem; 60 °C): 233 mg/mL (≈ 546 mM)

Molecule: CCN(C)C(=O)Oc1cccc([C@H](C)N(C)C)c1 [Rivastigmine tartrate]
solubility (physchem; 20 °C): 200 mg/mL

Molecule: Cc1nc2n(c(=O)c1CCN1CCC(c3noc4cc(F)ccc34)CC1)CCCC2 [Risperidone]
solubility (physchem; 20 °C): 500 mg/mL (≈ 1220 mM)

Molecule: CNCC[C@H](Oc1cccc2ccccc12)c1cccs1 [Duloxetine hydrochloride]
solubility (physchem; 20 °C): 400 mg/mL

Molecule: CC12CC3CC(C)(C1)CC(N)(C3)C2 [Memantine hydrochloride]
solubility (physchem; 20 °C): 130 mg/mL

The next lines start with the values.

solubility (physchem; 20 °C): 400 mg/mL (≈ 892 mM)
Molecule: O=C1CCc2ccc(OCCCCN3CCN(c4cccc(Cl)c4Cl)CC3)cc2N1 [Aripiprazole]

solubility (physchem; 20 °C): 110 mg/mL (≈ 293 mM)
Molecule: O=C(CCCN1CCC(O)(c2ccc(Cl)cc2)CC1)c1ccc(F)cc1 [Haloperidol]

solubility (physchem; 20 °C): 200 mg/mL (≈ 469 mM)
Molecule: COc1cc(C(C)=O)ccc1OCCCN1CCC(c2noc3cc(F)ccc23)CC1 [Iloperidone]
